In patent US11970475B1, “4-(1-(2-Hydroxypropyl)-4,5-diphenyl-1H-imidazol-2-yl)pyridin-3-ol as an antimicrobial compound” (KING FAISAL UNIVERSITY, priority 2023, dated 2024):

How the values were obtained:
Ps. aeruginosa = experiment: Anti-microbial screening, agar dilution, Ps. aeruginosa; format: cell-based, Pseudomonas aeruginosa; conditions: after 10, 20, 40 and 60 minutes at all dilutions 1:100, 1:200, 1:400, 1:800
Protocol: (§1) The antibacterial properties of the present compound were studied by the method of agar dilution. Test solutions of the compound were prepared in a concentration of 1% using dimethylformamide as a solvent then they are diluted in physiological solution to obtain the final experimental dilutions 1:100, 1:200, 1:400, and 1:800. The effect of these substances were compared with furacillin in a controllable study. The testing microbes used were gram positive bacteria St. Aereus, gram negative bacteria E. Coli, Ps. aeruginosa and Candida albicans fungi were taken. The experiments used for this survey were meat-pentonlu agar (EPA) for cultivation of bacteria and Saburo environment for fungi. Each experiment used 1 ml of test solution on each plate 500 min. Add 2 drops of emulsified with microbes feel. All experimental samples were taken from the agar after 10, 20, 40, and 60 minutes in the environment on the basis of Patrk planted. Bacteria were cultivated at a temperature of 37° C. for 1 day and the mushroom was kept in a thermostat for […] at a temperature of 28° C. Then results were checked.

E. Coli = experiment: Anti-microbial screening, agar dilution, E. Coli; format: cell-based, Escherichia coli; conditions: after 10, 20, 40 and 60 minutes at all dilutions 1:100, 1:200, 1:400, 1:800
Protocol: as §1

Candida albicans = experiment: Anti-microbial screening, agar dilution, Candida albicans; format: cell-based; conditions: after 10, 20, 40 and 60 minutes at all dilutions 1:100, 1:200, 1:400, 1:800
Protocol: as §1

St. Aereus = experiment: Anti-microbial screening, agar dilution, St. Aereus; format: cell-based, Staphylococcus aureus; conditions: after 10, 20, 40 and 60 minutes at all dilutions 1:100, 1:200, 1:400, 1:800
Protocol: as §1

Structure (SMILES): CC(O)Cn1c(-c2ccncc2O)nc(-c2ccccc2)c1-c1ccccc1 (centres unmarked) [4-(1-(2-Hydroxypropyl)-4,5-diphenyl-1H-imidazol-2-yl)pyridin-3-ol]
- inhibition activity (in words) (Ps. aeruginosa): highest inhibition activity
- inhibition activity (in words) (E. Coli): highest inhibition activity
- inhibition activity (in words) (Candida albicans): highest inhibition activity
- melting point: 117 to 118 °C
- inhibition activity (in words) (St. Aereus): highest inhibition activity
